Patent US20230121721A1, “MONOACYLGLYCEROL LIPASE INHIBITORS” (STICHTING HET NEDERLANDS KANKER INSTITUUT - ANTONI VAN …, priority 2020, published 2023)

target: T1, hMAGL (MAGL-overexpressing membrane preparations from transiently transfected HEK293T cells) (Homo sapiens, UniProt Q99685); experiment: MAGL activity assay (2-AG hydrolysis, glycerol coupled to Amplifu Red fluorescence); format: biochemical; details: hMAGL-overexpressing HEK293T membranes, 25 μM 2-AG substrate, 20 min. inhibitor incubation
T1 construct: expressed in transfected cells; host or cells: HEK293T (transient transfection), membrane preparations
T1 sequence (Q99685 1-303): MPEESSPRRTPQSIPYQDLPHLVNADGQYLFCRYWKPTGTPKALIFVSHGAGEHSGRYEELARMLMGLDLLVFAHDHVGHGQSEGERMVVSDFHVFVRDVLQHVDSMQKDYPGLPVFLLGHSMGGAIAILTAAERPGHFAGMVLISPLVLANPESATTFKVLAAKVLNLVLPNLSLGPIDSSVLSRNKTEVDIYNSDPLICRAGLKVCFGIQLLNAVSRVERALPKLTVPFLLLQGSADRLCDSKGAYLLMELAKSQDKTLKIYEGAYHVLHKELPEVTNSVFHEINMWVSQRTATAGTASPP
Text: The MAGL activity assay is based on the production of glycerol from 2-arachidonoylglycerol (2-AG) hydrolysis by MAGL-overexpressing membrane preparations from transiently transfected HEK293T cells, as previously reported in van der Wel T et al., “A natural substrate-based fluorescence assay for inhibitor screening on diacylglycerol lipase”, J Lipid Res., 2015, 56(4), 927-35. The produced glycerol is coupled to the oxidation of commercially available Amplifu™ Red (Sigma-Aldrich Chemie N.V., Zwijndrecht, Netherlands) via a multi-enzyme cascade, resulting in a fluorescent signal from the dye resorufin.
Standard assays were performed in HEMNB buffer (50 mM HEPES pH 7.4, 1 mM EDTA, 5 mM MgCl2, 100 mM NaCl, 0.5% (w/v) BSA) in black, flat bottom 96-wells plates. Final protein concentration of membrane preparations from overexpressing hMAGL HEK293T cells was 1.5 μg/mL (0.3 μg per well). Inhibitors were added from 40× concentrated DMSO stocks. […] Final assay concentrations: 0.2 U/mL GK, GPO and HRP, 0.125 mM ATP, 10 μM Amplifu™ Red, 25 μM 2-AG, 5% DMSO, 0.5% ACN in a total volume of 200 μL.
For IC50 determination, the MAGL-overexpressing membranes were incubated with different inhibitor concentrations. Slopes of corrected fluorescence in time were determined in the linear interval of t=10 to t=35 min and then scaled to the corrected positive control of hMAGL-overexpressing membranes treated with vehicle (DMSO) as a 100% activity reference point. The data was exported to GraphPad Prism 5.0 and analysed in a non-linear dose-response analysis with variable slope.

SMILES | IC50 [µM]
C[C@H]1[C@H](C)N(c2cccc(Cl)c2)CCN1C(=O)c1ccc([S+]([O-])CC(=O)c2ccc(C(F)(F)F)nc2)c(Cl)c1 (mixture of isomers) [Example 90, (±) 2-((2-Chloro-4-(4-(3-chlorophenyl)-trans-2,3-dimethylpiperazine-1-carbonyl)phenyl)sulfinyl)-1-(6-(trifluoromethyl)pyridin-3-yl)ethan-1-one] | 0.813
C[C@H]1[C@H](C)N(c2cccc(Cl)c2)CCN1C(=O)c1ccc([S+]([O-])CC(=O)c2ncccn2)c(Cl)c1 (mixture of isomers) [Example 102, (±) 2-((2-Chloro-4-(4-(3-chlorophenyl)-trans-2,3-dimethylpiperazine-1-carbonyl)phenyl)sulfinyl)-1-(pyrimidin-2-yl)ethan-1-one] | 0.0282
CCOC(=O)C[S+]([O-])c1c(F)cc(C(=O)N2CCN(c3cccc(Cl)c3)[C@H](C)C2)cc1F (stereo partly drawn) [Example 106, Ethyl 2-((4-((R)-4-(3-chlorophenyl)-3-methylpiperazine-1-carbonyl)-2,6-difluorophenyl)sulfinyl)acetate] | 0.282
CCN(C)C(=O)C[S+]([O-])c1ccc(C(=O)N2CCN(c3cccc(Cl)c3)[C@H](C)C2)cc1[N+](=O)[O-] (stereo partly drawn) [Example 33, 2-((4-((R)-4-(3-Chlorophenyl)-3-methylpiperazine-1-carbonyl)-2-nitrophenyl)sulfinyl)-N-ethyl-N-methylacetamide] | > 10
CCOC(=O)CS(=O)(=O)c1ccc(C(=O)N2CCN(c3cccc(C)c3)[C@@H](C)C2)cc1[N+](=O)[O-] [Example 6, Ethyl (S)-2-((4-(3-methyl-4-(m-tolyl)piperazine-1-carbonyl)-2-nitrophenyl)sulfonyl)acetate] | > 10
C[C@@H]1[C@@H](C)N(c2cccc(Cl)c2)CCN1C(=O)c1ccc([S+]([O-])CC(=O)OC2CCC2)c(Cl)c1 (mixture of isomers) [Example 58, (±) Cyclobutyl 2-((2-chloro-4-(4-(3-chlorophenyl)-trans-2,3-dimethylpiperazine-1-carbonyl)phenyl)sulfinyl)acetate] | 0.00417
CCOC(=O)C[S+]([O-])c1ccc(C(=O)N2CCN(c3cccc(C)c3)[C@H](C)C2)cc1[N+](=O)[O-] (stereo partly drawn) [Example 3, Ethyl 2-((4-((R)-3-methyl-4-(m-tolyl)piperazine-1-carbonyl)-2-nitrophenyl)sulfinyl)acetate] | 0.195
CCOC(=O)CSc1ccc(C(=O)N2CCN(c3cccc(Cl)c3)[C@H](C)[C@H]2C)cc1Cl (racemic) [Example 52, (±) Ethyl 2-((2-chloro-4-(4-(3-chlorophenyl)-trans-2,3-dimethylpiperazine-1-carbonyl)phenyl)thio)acetate] | > 10
CCOC(=O)C[S+]([O-])c1ccc(C(=O)N2CCN(c3cccc(C(F)(F)F)c3)[C@@H](C)C2)cc1[N+](=O)[O-] (stereo partly drawn) [Example 31, Ethyl 2-((4-((S)-3-methyl-4-(3-(trifluoromethyl)phenyl)piperazine-1-carbonyl)-2-nitrophenyl)sulfinyl)acetate] | 0.2
C[C@H]1[C@H](C)N(c2cccc(Cl)n2)CCN1C(=O)c1ccc([S+]([O-])CC(=O)C(C)(F)F)c(Cl)c1 (mixture of isomers) [Example 81, (±) 1-((2-chloro-4-(4-(6-chloropyridin-2-yl)-trans-2,3-dimethylpiperazine-1-carbonyl)phenyl)sulfinyl)-3,3-difluorobutan-2-one] | 0.000851
CCOC(=O)C[S+]([O-])c1ccc(C(=O)N2CCN(c3cccc(-c4ccccc4)c3)CC2)cc1[N+](=O)[O-] (centres unmarked) [Example 20, Ethyl 2-((4-(4-([1,1′-biphenyl]-3-yl)piperazine-1-carbonyl)-2-nitrophenyl)sulfinyl)acetate] | 1.35
CCOC(=O)C[S+]([O-])c1ccc(C(=O)N2CCN(c3c(Cl)cccc3Cl)CC2)cc1[N+](=O)[O-] (centres unmarked) [Example 24, Ethyl 2-((4-(4-(2,6-dichlorophenyl)piperazine-1-carbonyl)-2-nitrophenyl)sulfinyl)acetate] | 1.82
CCOC(=O)C[S+]([O-])c1ccc(C(=O)N2CCN(c3cccc(F)c3)[C@@H](C)C2)cc1[N+](=O)[O-] (stereo partly drawn) [Example 25, Ethyl 2-((4-((S)-4-(3-fluorophenyl)-3-methylpiperazine-1-carbonyl)-2-nitrophenyl)sulfinyl)acetate] | 0.155

The next lines start with the values.

IC50 [µM] | SMILES
2.29 | C[C@H]1[C@H](C)N(c2cccc(Cl)c2)CCN1C(=O)c1ccc([S+]([O-])CC(=O)c2ccccc2)c(Cl)c1 (mixture of isomers) [Example 104, (±) 2-((2-Chloro-4-(4-(3-chlorophenyl)-trans-2,3-dimethylpiperazine-1-carbonyl)phenyl)sulfinyl)-1-phenylethan-1-one]
0.234 | C[C@H]1[C@H](C)N(c2cccc(Cl)c2)CCN1C(=O)c1ccc([S+]([O-])CC(=O)c2nccs2)c(Cl)c1 (mixture of isomers) [Example 75, (±) 2-((2-Chloro-4-(4-(3-chlorophenyl)-trans-2,3-dimethylpiperazine-1-carbonyl)phenyl)sulfinyl)-1-(thiazol-2-yl)ethan-1-one]
0.0347 | C[C@@H]1CN(C(=O)c2ccc([S+]([O-])CC(=O)OCCCO)c([N+](=O)[O-])c2)CCN1c1cccc(Cl)c1 (stereo partly drawn) [Example 41, 3-Hydroxypropyl 2-((4-((R)-4-(3-chlorophenyl)-3-methylpiperazine-1-carbonyl)-2-nitrophenyl)sulfinyl)acetate]
0.115 | CCOC(=O)C[S+]([O-])c1ccc(C(=O)N2CCN(c3cccc(C(F)(F)F)c3)[C@H](C)C2)cc1[N+](=O)[O-] (stereo partly drawn) [Example 30, Ethyl 2-((4-((R)-3-methyl-4-(3-(trifluoromethyl)phenyl)piperazine-1-carbonyl)-2-nitrophenyl)sulfinyl)acetate]
0.00871 | CCOC(=O)C[S+]([O-])c1ccc(C(=O)N2CCN(c3cc(Cl)ccn3)[C@@H](C)[C@@H]2C)cc1Cl (mixture of isomers) [Example 71, (±) Ethyl 2-((2-chloro-4-(-4-(4-chloropyridin-2-yl)-trans-2,3-dimethylpiperazine-1-carbonyl)phenyl)sulfinyl)acetate]
0.575 | C[C@H]1[C@H](C)N(c2cccc(Cl)c2)CCN1C(=O)c1ccc([S+]([O-])CC(=O)c2cccc(F)c2F)c(Cl)c1 (mixture of isomers) [Example 93, (±) 2-((2-Chloro-4-(4-(3-chlorophenyl)-trans-2,3-dimethylpiperazine-1-carbonyl)phenyl)sulfinyl)-1-(2,3-difluorophenyl)ethan-1-one]
0.0871 | CCOC(=O)C[S+]([O-])c1ccc(C(=O)N2CCN(c3ccnc(Cl)c3)[C@@H](C)[C@@H]2C)cc1Cl (mixture of isomers) [Example 69, (±) Ethyl 2-((2-chloro-4-(-4-(2-chloropyridin-4-yl)-trans-2,3-dimethylpiperazine-1-carbonyl)phenyl)sulfinyl) acetate]
